The source of these data is patent publication US7053107B2, “Indazole compounds and pharmaceutical compositions for inhibiting protein kinases, and methods for their use” (Agouron Pharmaceuticals, Inc., priority 2002, dated 2006).

In assay [1] the target is T1, unphosphorylated VEGF-R2Δ50 (Homo sapiens, UniProt P35968, DEL940-989/E990V).
T1 construct: VEGF-R2Δ50 contains residues 806–939 and 990–1171; made in house; host or cells: baculovirus/insect cell system
The experiment in a line: VEGF-R2 coupled spectrophotometric assay, unphosphorylated construct (FLVK). The format is biochemical. The note with it: % inhibition at 50 nM compound; read-out: FLVK Ki % inh @ 50 nM. The procedure, abridged:
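Human VEGF-R2Δ50 kinase (residues 806–939/990–1171, baculovirus-expressed; autophosphorylated form pre-treated with 3 mM ATP, 4° C, 2 h), 5–40 nM, with poly(E4Y1) in 200 mM HEPES pH 7.5; ADP coupled via PK/LDH to NADH oxidation at 340 nm. Phosphorylated: 1 mM ATP, 5.1 mM poly(E4Y1), 25 mM MgCl2; unphosphorylated: 3 mM ATP, 20 mM poly(E4Y1), 60 mM MgCl2, 2 mM MnCl2. Ki from activity at varying compound levels.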

The test system of assay [2] is HUVEC. The experiment in a line: HUVEC + albumin proliferation. In kind it is cell-based. The note with it: Homo sapiens, 72 h, with albumin. How it is done:
This assay determines the ability of a test compound to inhibit the growth factor-stimulated proliferation of human umbilical vein endothelial cells (“HUVEC”). HUVEC cells (passage 3–4, Clonetics, Corp.) were thawed into EGM2 culture medium (Clonetics Corp) in T75 flasks. Fresh EGM2 medium was added to the flasks 24 hours later. Four or five days later, cells were exposed to another culture medium (F12K medium supplemented with 10% fetal bovine serum (FBS), 60 μg/mL endothelial cell growth supplement (ECGS), and 0.1 mg/mL heparin). Exponentially-growing HUVEC cells were used in experiments thereafter. Ten to twelve thousand HUVEC cells were plated in 96-well dishes in 100 μl of rich, culture medium (described above). The cells were allowed to attach for 24 hours in this medium. The medium was then removed by aspiration and 105 μl of starvation media (F12K+1% FBS) was added to each well. After 24 hours, 15 μl of test agent dissolved in 1% DMSO in starvation medium or this vehicle alone was added into each treatment well; the final DMSO concentration was 0.1%. One hour later, 30 μl of VEGF (30 ng/mL) in starvation media was added to all wells except those containing untreated controls; the final VEGF concentration was 6 ng/mL. Cellular proliferation was quantified 72 hours later by MTT dye reduction, at which time cells were exposed for 4 hours MTT (Promega Corp.). Dye reduction was stopped by addition of a stop solution (Promega Corp.) and absorbance at 595λ was determined on a 96-well spectrophotometer plate reader.
IC50 values were calculated by curve-fitting the response of A^595 to various concentrations of the test agent; typically, seven concentrations separated by 0.5 log were employed, with triplicate wells at each concentration. For screening compound library plates, one or two concentrations (one well per concentration) were employed, and the % inhibition was calculated by the following formula: % inhibition=(control−test)[…](control−starvation) where

For assay [3], the system named is HUVEC. As to the kind of experiment: bFGF Huvec. In kind it is cell-based. The following applies: Homo sapiens.
Assay [4] has as its system human umbilical vein endothelial cells (HUVEC). As to the kind of experiment: HUVEC Proliferation Assay (VEGF-stimulated). The format is cell-based. The procedure, abridged:
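Serum-starved HUVEC (passage 3–4, F12K + 1% FBS, 24 h) pretreated 1 h with compound (final DMSO 0.1%), then stimulated with 6 ng/mL VEGF for 72 h. Proliferation read by 4 h MTT reduction, absorbance 595. IC50 from seven-point 0.5-log curves in triplicate; screening % inhibition normalised to VEGF-only and starvation controls.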

The next assay concerns the target T2, LCK (Homo sapiens, UniProt P06239, C224D/P223M).
T2 construct: starting from amino acid residue 223 to the end of the protein at residue 509; made in house; host or cells: insect cells
As to the kind of experiment: Lymphocyte-Specific Protein-Tyrosine Kinase (LCK) spectrophotometric assay. The format is biochemical. The following applies: 1 μM compound; read-out: LckP* % inhibit @1 μM.

The target of assay [5] is T3, phosphorylated VEGF-R2Δ50 (Homo sapiens, UniProt P35968, DEL940-989/E990V).
T3 construct: VEGF-R2Δ50 contains residues 806–939 and 990–1171; made in house; host or cells: baculovirus/insect cell system
The experiment in a line: VEGF-R2 coupled spectrophotometric (FLVK-P) assay, phosphorylated construct. In kind it is biochemical. The note with it: Ki (nM). An excerpt: This construct determines the ability of a test compound to inhibit tyrosine kinase activity. A construct (VEGF-R2Δ50) of the cytosolic domain of human vascular endothelial growth factor receptor 2 (VEGF-R2) lacking the 50 central residues of the 68 residues of the kinase insert domain was expressed in a baculovirus/insect cell system. Of the 1356 residues of full-length VEGF-R2, VEGF-R2Δ50 contains residues 806–939 and 990–1171, and also one point mutation (E99OV) within the kinase insert domain relative to wild-type VEGF-R2. Autophosphorylation of the purified construct was performed by incubation of the enzyme at a concentration of 4 μM in the presence of 3 mM ATP and 40 mM MgCl2 in 100 mM HEPES, pH 7.5, containing 5% glycerol and 5 mM DTT, at 4° C. for 2 h. […] See Parast et al., Biochemistry, 37,16788–16801 (1998).
The production of ADP from ATP that accompanies phosphoryl transfer was coupled to oxidation of NADH using phosphoenolpyruvate (PEP) and a system having pyruvate kinase (PK) and lactic dehydrogenase (LDH). The oxidation of NADH was monitored by following the decrease of absorbance at 340 nm (e340=6.22 cm^−1 mM^−1) using a Beckman DU 650 spectrophotometer. […] Ki values were determined by measuring enzyme activity in the presence of varying concentrations of test compounds. The data were analyzed using Enzyme Kinetic and Kaleidagraph software.

T2 sequence (P06239 223-509 P223M/C224D): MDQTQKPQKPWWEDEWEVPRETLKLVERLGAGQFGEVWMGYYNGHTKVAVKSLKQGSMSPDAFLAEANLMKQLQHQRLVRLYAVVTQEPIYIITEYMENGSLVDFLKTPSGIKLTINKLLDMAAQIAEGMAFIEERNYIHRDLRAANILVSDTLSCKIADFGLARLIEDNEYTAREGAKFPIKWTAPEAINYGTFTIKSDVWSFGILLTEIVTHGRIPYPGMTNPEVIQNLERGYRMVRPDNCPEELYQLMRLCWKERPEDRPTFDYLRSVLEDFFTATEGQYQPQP
T1 sequence (P35968 with tags, fused parts or gaps DEL940-989/E990V limits assumed): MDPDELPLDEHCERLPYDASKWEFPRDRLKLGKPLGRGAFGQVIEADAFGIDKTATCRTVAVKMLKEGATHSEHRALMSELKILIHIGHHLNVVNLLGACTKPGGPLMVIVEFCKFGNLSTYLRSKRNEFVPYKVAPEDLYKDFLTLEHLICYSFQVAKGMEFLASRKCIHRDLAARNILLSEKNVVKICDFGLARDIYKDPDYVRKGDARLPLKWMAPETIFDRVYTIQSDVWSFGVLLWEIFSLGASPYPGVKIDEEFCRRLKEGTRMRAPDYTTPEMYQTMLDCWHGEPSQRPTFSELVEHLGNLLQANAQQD
T3 sequence (P35968 with tags, fused parts or gaps DEL940-989/E990V limits assumed): as above

By IC50 is commonly meant the midpoint of a concentration-inhibition curve. For `O=C(NC1CC1)c1ccccc1Nc1ccc2c(/C=C/c3ccccn3)n[nH]c2c1` [Example 3(d), N-Cyclopropyl-2-[3-((E)-2-pyridin-2-yl-vinyl)-1H-indazol-6-ylamino]-benzamide], in assay [1], the inhibition at 0.05 µM turned out to be 89%. Moreover, the figures for the half-maximal inhibitory concentration (IC50) (in the assay with HUVEC [2]; with HUVEC [3]; in assay [4]) were 7.5 nM, 147 nM and 0.4 nM, respectively. Further, the inhibition at 1 µM at LCK was 11%.
Take `C=C(C)CNC(=O)c1ccccc1Nc1ccc2c(/C=C/c3ccccn3)n[nH]c2c1` [Example 3(k), N-(2-Methyl-allyl)-2-[3-((E)-2-pyridin-2-yl-vinyl)-1H-indazol-6-ylamino]-benzamide]: in assay [1], the inhibition at 0.05 µM was 74%. Also, the half-inhibitory concentration (IC50) in the assay with HUVEC [3] worked out at 1000 nM; in assay [4], 0.8 nM. For the same compound, the inhibition at 1 µM on LCK came to 19%.
Regarding `O=C(NCC#CCO)c1ccccc1Nc1ccc2c(/C=C/c3ccccn3)n[nH]c2c1` [Example 64, N-(4-Hydroxy-but-2-ynyl)-2-[3-(2-pyridin-2-yl-vinyl)-1H-indazol-6-ylamino]-benzamide], the inhibition at 0.05 µM in assay [1] was 94%. Also, the 50% inhibitory concentration (IC50) was determined as 1250 nM in the assay on HUVEC [3] and 0.15 nM in assay [4].
On to `COc1ccccc1CNC(=O)c1ccccc1Nc1ccc2c(/C=C/c3ccccn3)n[nH]c2c1` [Example 3(h), N-(2-Methoxy-benzyl)-2-[3-((E)-2-pyridin-2-yl-vinyl)-1H-indazol-6-ylamino]-benzamide], for which the inhibition at 0.05 µM in assay [1] amounted to 96%. Also, the half-maximal inhibitory concentration (IC50) in assay [4] turned out to be 1.6 nM. Further, the inhibition at 1 µM on LCK stood at 37%.
On to `C#CCNC(=O)c1ccccc1Nc1ccc2c(/C=C/c3cc(C)ccn3)n[nH]c2c1` [Example 32, 2-{3-[(E)-2-(4-Methyl-pyridin-2-yl)-vinyl]-1H-indazol-6-ylamino}-N-prop-2-ynyl-benzamide], for which the inhibition at 0.05 µM in assay [1] amounted to 78%. Moreover, the IC50 in assay [4] was found to be 0.61 nM.
As to `Cc1ccnc(/C=C/c2n[nH]c3cc(Nc4ccccc4C(=O)NC4CC4)ccc23)c1` [Example 2(h), N-Cyclopropyl-2-{3-[(E)-2-(4-methyl-pyridin-2-yl)-vinyl]-1H-indazol-6-ylamino}-benzamide], the inhibition at 0.05 µM in assay [1] is 84%. Also, the IC50 in the assay on HUVEC [3] was 70 nM; in assay [4], 1.6 nM.
Turning to `O=C(NC1CCC1)c1ccccc1Nc1ccc2c(/C=C/c3ccccn3)n[nH]c2c1` [Example 3(j), N-Cyclobutyl-2-[3-((E)-2-pyridin-2-yl-vinyl)-1H-indazol-6-ylamino]-benzamide], the inhibition at 0.05 µM in assay [1] amounted to 80%. Moreover, the concentration for half-maximal inhibition (IC50) in assay [4] came to 1.7 nM. In addition, the inhibition at 1 µM on LCK was 17%.
Broadly, the Ki is the dissociation constant of the complex between target and ligand, obtained from inhibition or displacement. Take `Cc1cc(C)nc(/C=C/c2n[nH]c3cc(Nc4ccccc4C(=O)NCC#CCO)ccc23)c1` [Example 10, 2-{3-[(E)-2-(4,6-Dimethyl-pyridin-2-yl)-vinyl]-1H-indazol-6-ylamino}-N-(4-hydroxy-but-2-ynyl)-benzamide]: in assay [1], the inhibition at 0.05 µM was 76%. The same compound registered a Ki in assay [5] of 6.07 nM. The same compound had an IC50 in assay [4] of 0.67 nM.
